Experimental data taken from patent publication US4001424A, “1-Oxo-1H-naphtho [2,1-b] pyran derivatives for treating depression” (Carlo Erba S.p.A., priority 1973, dated 1977).

What was measured:
[1] = test system: reserpine-induced blepharospasm; test: Anti-reserpine activity: prevention of reserpine-induced blepharospasm; type: in vivo, mice; conditions: Mus musculus, 1 h; oral, 30 min before reserpine 2.5 mg/kg endoperitoneally; scored one hour after reserpine; dose reducing symptoms by 50% vs control
From the text: (§1) 1-oxo-1H-naphtho[2,1-b]pyran derivatives as well as the pharmaceutical compositions containing them, being the object of the present invention, are active on the central nervous system as antidepressive agents. The antidepressive activity of the compounds of the invention, evaluated in mice from the prevention of reserpine-induced blepharospasm and hypothermia, is shown in the following Table, where the antireserpine effect is indicated as ED50 values, that is, doses able to prevent reserpine-induced blepharospasm and hypothermia by reducing symptoms of 50% if compared with the values obtainable in control animals.
(§2) Reserpine was administered endoperitoneally at a dosage of 2.5 mg/kg, and the compounds tested were administered orally 30 minutes before administration of reserpine. Recording of blepharospasm (evaluated in scores according to the technique described by Rubin B. et al in J. Pharmacol. 120, 125, 1957) and measurement of body temperature (by means of a rectal thermocouple […]) were taken an hour, and respectively, four hours after the administration of reserpine. In particular, the compounds object of the present invention not only allow to obtain a lower general toxicity in comparison with standard antidepressive agents, but also a lower cardiac toxicity as well as the lack of peripheral atropine effects.

[2] = test system: reserpine-induced hypothermia; test: Anti-reserpine activity: prevention of reserpine-induced hypothermia; type: in vivo, mice; conditions: Mus musculus, 4 h; oral, 30 min before reserpine 2.5 mg/kg endoperitoneally; rectal temperature four hours after reserpine; dose reducing symptoms by 50% vs control
From the text: as §1, §2

Compound: CN(C)c1cc(=O)c2c(ccc3ccccc32)o1 [1-oxo-3-dimethylamino-1H-naphtho[2,1-b]pyran]
- ED50 [1]: 8.7 mg/kg
- ED50 [2]: 21 mg/kg

Compound: CCN(C)c1cc(=O)c2c(ccc3ccccc32)o1 [1-oxo-3-(N-methyl-N-ethyl)amino-1H-naphtho[2,1-b]pyran]
- ED50 [1]: 4 mg/kg
- ED50 [2]: 15 mg/kg
